Measured values taken from patent US11691989B2, “Macrocyclic indoles as Mcl-1 inhibitors” (ASCENTAGE PHARMA (SUZHOU) CO., LTD., priority 2018, dated 2023).

Key:
[1] = target: Mcl-1 protein (residues 171-323) (Homo sapiens (Human), UniProt Q07820); experiment: Inhibition of Mcl-1 by fluorescence polarization (FP) competitive binding assay with FAM-Bid tracer; settings: 2 nM FAM-Bid, 20 nM Mcl-1, 30 min, read-out: Mc1-1 (FP)
Experimental: Inhibition of Mcl-1 by fluorescence polarization (FP) assay.
The method used a fluorescein labelled peptide (FAM-Bid) which binds to the Mcl-1 protein leading to an increased anisotropy measured in milli-polarization (mP) values using a plate reader.
A 10-points serial dilution of each compound was prepared in DMSO and 5 μL solution was transferred into flat bottomed, 96-well back plate (final DMSO concentration 5%). 120 μL of Buffer (PBS, 0.01% BGG (Sigma Cat. #SRE0011), 0.01% Triton X-100), containing the Fluorescein labelled peptide (Final concentration 2 nM) and Mcl-1 protein (final concentration 20 nM) was then added. […] 10-points dose response curves were plotted with GraphPad software using Sigmoidal Dose-Response Model and the IC50 values were determined by nonlinear regression fitting of the competition curves.

OPM-2 cells = experiment: Cell viability assay (OPM-2 cells), CCK-8; format: cell-based; settings: Homo sapiens, OPM-2, 24 h, 5% FBS
Experimental: Cell Viability Assay (OPM-2 cells)
OPM-2 cells were obtained from Deutsche Sammlung von Mikroorganismen and Zellkulturen GmbH (DSMZ). Cells were maintained in the recommended culture medium with 10% FBS at 37° C. and an atmosphere of 5% CO2.
The effect of representative Compounds of the Disclosure on cell viability was determined using Cell Counting Kit-8 (CCK-8) assay (Shanghai Life iLab Bio Technology) according to the manufacturer's instructions. Each tested compound was serially diluted in culture medium, 100 μL of the compound dilution was added into 96-well plates. 100 μL of an OPM-2 cell suspension (20000 cells/well) in culture medium were seeded into the corresponding well of the plate and the cells were incubated at 37° C. in an atmosphere of 5% CO2 for 24 hours. In the next day, 20 μL of CCK-8 solution was added to each well of the plate and incubated for 4 hours.
The plates were read at 450 nm on the microplate spectrophotometer (SpectraMax plus 384, Molecular devices). The readings were normalized to the vehicle cells, and the IC50 was calculated by nonlinear regression analysis using GraphPad Prism 6 software.

NCI-H929 cells = experiment: Cell viability assay (NCI-H929 cells), CCK-8; format: cell-based; settings: Homo sapiens, NCI-H929, 24 h, 5% FBS
Experimental: Cell Viability Assay (NCI-H929 cells)
NCI-H929 cells were obtained from American Type Culture Collection (ATCC). Cells were maintained in the recommended culture medium (RPMI 1640) with 10% FBS and 0.05 mM BME at 37° C. and an atmosphere of 5% CO2.
The effect of Compounds on cell viability was determined using Cell Counting Kit-8 (CCK-8) assay according to the manufacturer's instructions. 95 μL of NCI-H929 cell suspension (20000 cells/well) in culture medium were seeded into 96-well plates and cultured 4 hrs. Each tested compound was serially diluted in DMSO, then 5 μL of the compound or DMSO was diluted in 95 μL medium once more. At last, 5 μL of the compound dilution was added to the corresponding well of the cell plate. After the addition of the tested compound, the cells were incubated at 37° C. in an atmosphere of 5% CO2 for 24 hrs. At the end, 10 μL of CCK-8 solution was added to each well of the plate and incubated for 1-4 hours. The plates were read at 450 nm on the microplate reader (BioTek Synergy 1MF). The readings were normalized to the vehicle cells, and the IC50 was calculated by nonlinear regression analysis using GraphPad Prism 6 software.

Chain of Mcl-1 protein (residues 171-323) (Q07820 171-323): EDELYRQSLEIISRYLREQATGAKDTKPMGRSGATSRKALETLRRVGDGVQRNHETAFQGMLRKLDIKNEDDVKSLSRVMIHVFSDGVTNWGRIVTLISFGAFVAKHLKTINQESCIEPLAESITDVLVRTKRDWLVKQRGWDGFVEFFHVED

Q: How did the IC50 [1] turn out when `CNC(=O)Cn1nc2c(c1C)-c1c(Cl)ccc3c1c(C)c(C(=O)O)n3CCCOc1cc(cc3ccccc13)SCc1cc(nn1C)CSC2` [Cpd. No. 10, (Z)-1^5-chloro-1^3,2^5,6^1-trimethyl-2^1-(2-(methylamino)-2-oxoethyl)-1^1H,2^1H,6^1H-10-oxa-4,8-dithia-1(4,1)-indola-2(4,3),6(3,5)-dipyrazola-9(3,1)-naphthalenacyclotridecaphane-1^2-carboxylic acid] was run?
A: Its IC50 is 4 nM.

Q: And the IC50 (OPM-2 cells)?
A: The IC50 was 4110 nM.

Q: And the IC50 (NCI-H929 cells)?
A: Its IC50 is 1850 nM.

Q: For `Cc1c2c(nn1C)CSCc1cc(n(C)n1)CSc1cc(c3ccc(F)cc3c1)OCCCn1c(C(=O)O)cc3c-2c(Cl)ccc31` [Cpd. No. 13, (Z)-1^5-chloro-9^6-fluoro-2^1,2^5,6^1-trimethyl-1^1H,2^1H,6^1E-10-oxa-4,8-dithia-1(4,1)-indola-2(4,3),6(3,5)-dipyrazola-9(3,1)-naphthalenacyclotridecaphane-1^2-carboxylic acid], which IC50 (OPM-2 cells) is on record?
A: The IC50 was 649 nM.

Q: What about the IC50 (NCI-H929 cells) of the same compound?
A: The IC50 was 180 nM.

Q: Which IC50 [1] does the source give for `Cc1c2c(nn1C)CSCc1cc(n(C)n1)CSc1cc(c3ccc(F)cc3c1)OCCCn1c(C(=O)O)c(F)c3c-2c(Cl)ccc31` [Cpd. No. 19, (Z)-1^5-chloro-1^3,9^6-difluoro-2^1,2^5,6^1-trimethyl-1^1H,2^1H,6^1H-10-oxa-4,8-dithia-1(4,1)-indola-2(4,3),6(3,5)-dipyrazola-9(3,1)-naphthalenacyclotridecaphane-1^2-carboxylic acid] here?
A: The IC50 was 10 nM.

Q: What about the IC50 (OPM-2 cells) of the same compound?
A: Its IC50 is 449 nM.

Q: What about the IC50 (NCI-H929 cells) of the same compound?
A: The IC50 was 444 nM.

Q: `Cc1c(C(=O)O)n2c3ccc(F)c(c13)-c1c(nn(C)c1C)CSCc1cc(n(C)n1)CSc1cc(c3ccc(F)cc3c1)OCCC2` [Cpd. No. 21, (Z)-1^5,9^6-difluoro-1^3,2^1,2^5,6^1-tetramethyl-1^1H,2^1H,6^1H-10-oxa-4,8-dithia-1(4,1)-indola-2(4,3), 6(3,5)-dipyrazola-9(3,1)-naphthalenacyclotridecaphane-1^2-carboxylic acid] was tested. Which IC50 [1] did it give?
A: The IC50 was 10 nM.

Q: And the IC50 (OPM-2 cells)?
A: Its IC50 is 223 nM.

Q: And the IC50 (NCI-H929 cells)?
A: Its IC50 is 170 nM.

Q: Which IC50 [1] does the source give for `Cc1c2c(nn1C)CSCc1cc(n(C)n1)CSc1cc(c3ccc(F)cc3c1)OCCCn1c(C(=O)O)c(C#N)c3c-2c(Cl)ccc31` [Cpd. No. 25, (Z)-1^5-chloro-1^3-cyano-9^6-fluoro-2^1,2^5,6^1-trimethyl-1^1H,2^1H,6^1H-10-oxa-4,8-dithia-1(4,1)-indola-2(4,3),6(3,5)-dipyrazola-9(3,1)-naphthalenacyclotridecaphane-1^2-carboxylic acid] here?
A: The IC50 was 21 nM.

Q: What about the IC50 (OPM-2 cells) of the same compound?
A: The IC50 was 5970 nM.

Q: And the IC50 (NCI-H929 cells)?
A: Its IC50 is 4290 nM.

Q: With `COCCn1nc(C)c2c1CSCc1cc(n(C)n1)CSc1cc(c3ccccc3c1)OCCCn1c(C(=O)O)c(C)c3c-2c(Cl)ccc31` [Cpd. No. 27, (Z)-1^5-chloro-2^1-(2-methoxyethyl)-1^3,2^3,6^1-trimethyl-1^1H,2^1H,6^1H-10-oxa-4,8-dithia-1(4,1)-indola-2(4,5),6(3,5)-dipyrazola-9(3,1)-naphthalenacyclotridecaphane-1^2-carboxylic acid] as the compound, how does the IC50 [1] read?
A: The IC50 was 15 nM.

Q: And the IC50 (OPM-2 cells)?
A: The IC50 was 258 nM.

Q: And the IC50 (NCI-H929 cells)?
A: Its IC50 is 285 nM.

Q: `Cc1c(C(=O)O)n2c3ccc(Cl)c(c13)-c1c(nn3c1COCC3)CN(S(C)(=O)=O)Cc1cc(n(C)n1)CSc1cc(c3ccc(F)cc3c1)OCCC2` [Cpd. No. 30, (Z)-1^5-chloro-9^6-fluoro-4-(isopropylsulfonyl)-1^3, 6^1-di methyl-2^6,2^7-dihydro-1^1H,2^4H,6^1H-10-oxa-8-thia-4-aza-2(3,2)-pyrazolo[5,1-c][1,4]oxazina-1(4,1)-indola-6(3,5)-pyrazola-9(3,1)-naphthalenacyclotridecaphane-1^2-carboxylic acid] was tested. Which IC50 [1] did it give?
A: The IC50 was 17 nM.

Q: And the IC50 (OPM-2 cells)?
A: The IC50 was 5240 nM.

Q: What about the IC50 (NCI-H929 cells) of the same compound?
A: The IC50 was 1850 nM.

Q: For `Cc1c(C(=O)O)n2c3ccc(Cl)c(c13)-c1c(nn(C)c1C)CN(S(=O)(=O)c1cnn(C)c1)Cc1cc(n(C)n1)CSc1cc(c3ccc(F)cc3c1)OCCC2` [Cpd. No. 36, (Z)-1^5-chloro-9^6-fluoro-1^3,2^1,2^5,6^1-tetramethyl-4#1-methyl-1H-pyrazol-4-yl)sulfonyl)-1^1H,2^1H,6^1H-10-oxa-8-thia-4-aza-1(4,1)-indola-2(4,3),6(3,5)-dipyrazola-9(3,1)-naphthalenacyclotridecaphane-1^2-carboxylic acid], which IC50 [1] is on record?
A: Its IC50 is 27 nM.

Q: And the IC50 (OPM-2 cells)?
A: The IC50 was 2020 nM.

Q: What about the IC50 (NCI-H929 cells) of the same compound?
A: Its IC50 is 696 nM.

Q: With `Cc1c(C(=O)O)n2c3ccc(Cl)c(c13)-c1c(nn(C)c1C)CN(S(=O)(=O)c1ccn(C)n1)Cc1cc(n(C)n1)CSc1cc(c3ccc(F)cc3c1)OCCC2` [Cpd. No. 37, (Z)-1^5-chloro-9^6-fluoro-1^3,2^1,2^5,6^1-tetramethyl-4#1-methyl-1H-pyrazol-3-yl))sulfonyl)-1^1H,2^1H,6^1H-10-oxa-8-thia-4-aza-1(4,1)-indola-2(4,3),6(3,5)-dipyrazola-9(3,1)-naphthalenacyclotridecaphane-1^2-carboxylic acid] as the compound, how does the IC50 [1] read?
A: The IC50 was 29 nM.

Q: And the IC50 (OPM-2 cells)?
A: Its IC50 is 3160 nM.

Q: And the IC50 (NCI-H929 cells)?
A: Its IC50 is 1500 nM.

Q: `CNS(=O)(=O)N1Cc2cc(n(C)n2)CSc2cc(c3ccc(F)cc3c2)OCCCn2c(C(=O)O)c(C)c3c(c(Cl)ccc32)-c2c(nn(C)c2C)C1` [Cpd. No. 38, (Z)-1^5-chloro-9^6-fluoro-1^3,2^1,2^5,6^1-tetramethyl-4-(N-methylsulfamoyl)-1^1H,2^1H,6^1H-10-oxa-8-thia-4-aza-1 (4,1)-indola-2(4,3),6(3,5)-dipyrazola-9(3,1)-naphthalenacyclotridecaphane-1^2-carboxylic acid] was tested. Which IC50 [1] did it give?
A: Its IC50 is 7 nM.

Q: What about the IC50 (OPM-2 cells) of the same compound?
A: Its IC50 is 543 nM.

Q: And the IC50 (NCI-H929 cells)?
A: Its IC50 is 270 nM.

Q: How did the IC50 [1] turn out when `Cc1c(C(=O)O)n2c3ccc(Cl)c(c13)-c1c(nn(C)c1C)CN(S(=O)(=O)N(C)C)Cc1cc(n(C)n1)CSc1cc(c3ccc(F)cc3c1)OCCC2` [Cpd. No. 40, (Z)-1^5-chloro-9^6-fluoro-1^3,2^1,2^5,6^1-tetramethyl-4-(N, N-dimethylsulfamoyl)-1^1H,2^1H,6^1H-10-oxa-8-thia-4-aza-1 (4,1)-indola-2(4,3),6(3,5)-dipyrazola-9(3,1)-naphthalenacyclotridecaphane-1^2-carboxylic acid] was run?
A: Its IC50 is 13 nM.

Q: And the IC50 (OPM-2 cells)?
A: Its IC50 is 190 nM.

Q: What about the IC50 (NCI-H929 cells) of the same compound?
A: The IC50 was 159 nM.

Q: What does the source list for `Cc1c(C(=O)O)n2c3ccc(Cl)c(c13)-c1c(nn(C)c1C)CN(S(=O)(=O)c1cccnc1)Cc1cc(n(C)n1)CSc1cc(c3ccc(F)cc3c1)OCCC2` [Cpd. No. 41, (Z)-1^5-chloro-9^6-fluoro-1^3,2^1,2^5,6^1-tetramethyl-4-(pyridin-3-ylsulfonyl)-1^1H,2^1H,6^1H-10-oxa-8-thia-4-aza-1 (4,1)-indola-2(4,3),6(3,5)-dipyrazola-9(3,1)-naphthalenacyclotridecaphane-1^2-carboxylic acid]?
A: IC50 [1]: 17 nM; IC50 (OPM-2 cells): 275 nM; IC50 (NCI-H929 cells): 198 nM

Q: Which results are given for `Cc1c(C(=O)O)n2c3ccc(Cl)c(c13)-c1c(nn(C)c1C)CN(C(=O)c1ccccn1)Cc1cc(n(C)n1)CSc1cc(c3ccc(F)cc3c1)OCCC2` [Cpd. No. 42, (Z)-1^5-chloro-9^6-fluoro-1^3,2^1,2^5,6^1-tetramethyl-4-picolinoyl-1^1H,2^1H,6^1H-10-oxa-8-thia-4-aza-1 (4,1)-indola-2(4,3),6(3,5)-dipyrazola-9(3,1)-naphthalenacyclotridecaphane-1^2-carboxylic acid]?
A: IC50 [1]: 22 nM; IC50 (OPM-2 cells): 1510 nM; IC50 (NCI-H929 cells): 768 nM

Q: For `Cc1c(C(=O)O)n2c3ccc(Cl)c(c13)-c1c(nn(C)c1C)CN(C(=O)c1ncco1)Cc1cc(n(C)n1)CSc1cc(c3ccc(F)cc3c1)OCCC2` [Cpd. No. 43, (Z)-1^5-chloro-9^6-fluoro-1^3,2^1,2^5,6^1-tetramethyl-4-(oxazole-2-carbonyl)-1^1H,2^1H,6^1H-10-oxa-8-thia-4-aza-1(4,1)-indola-2(4,3),6(3,5)-dipyrazola-9(3,1)-naphthalenacyclotridecaphane-1^2-carboxylic acid], which IC50 [1] is on record?
A: Its IC50 is 22 nM.

Q: What about the IC50 (OPM-2 cells) of the same compound?
A: Its IC50 is 1250 nM.

Q: What about the IC50 (NCI-H929 cells) of the same compound?
A: Its IC50 is 613 nM.
